Test results reported in the supplement of paper PMC10307832.

Columns and labels:
Assay in all cases: relative viability (nuclei count vs DMSO), 5 days (fraction); higher = more cells survive
[1] = compound: C=CCNC1=C2C[C@@H](C)C[C@H](OC)[C@H](O)[C@@H](C)/C=C(\C)[C@H](OC(N)=O)[C@@H](OC)/C=C\C=C(/C)C(=O)NC(=CC1=O)C2=O [17-AAG] + CCNC(=O)c1noc(-c2cc(C(C)C)c(O)cc2O)c1-c1ccc(CN2CCOCC2)cc1 [Luminespib] (partner 0.01 µM)
Procedure, shortened: (§1)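 Nuclei were stained with Hoechst during a one-step fixation (final 0.05% Triton X-100, 1% formaldehyde, 1 ug/ml Hoechst) carried out 5 days after dosing, then counted on 4× images. The cells, lung cancer lines in 1536-well plates, had been dosed by pin tool the day after seeding with one drug alone or a fixed anchor-drug dose plus five library-drug doses (not always all listed) in √10 steps. Relative viability is the nuclei count in treated wells divided by that in vehicle wells, and each value is the median of duplicate plates.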

[2] = compound: C=CCNC1=C2C[C@@H](C)C[C@H](OC)[C@H](O)[C@@H](C)/C=C(\C)[C@H](OC(N)=O)[C@@H](OC)/C=C\C=C(/C)C(=O)NC(=CC1=O)C2=O [17-AAG] + COc1cc2c(Oc3ccc(NC(=O)C4(C(=O)Nc5ccc(F)cc5)CC4)cc3F)ccnc2cc1OCCCN1CCOCC1 [Foretinib] (partner 0.25 µM)
Procedure, shortened: as §1

[3] = compound: C=CCNC1=C2C[C@@H](C)C[C@H](OC)[C@H](O)[C@@H](C)/C=C(\C)[C@H](OC(N)=O)[C@@H](OC)/C=C\C=C(/C)C(=O)NC(=CC1=O)C2=O [17-AAG] + Cc1cc(Nc2cc(N3CCN(C)CC3)nc(Sc3ccc(NC(=O)C4CC4)cc3)n2)n[nH]1 [Tozasertib] (partner 0.1 µM)
Procedure, shortened: as §1

[4] = compound: C=CCNC1=C2C[C@@H](C)C[C@H](OC)[C@H](O)[C@@H](C)/C=C(\C)[C@H](OC(N)=O)[C@@H](OC)/C=C\C=C(/C)C(=O)NC(=CC1=O)C2=O [17-AAG] + NC(=O)Nc1cc(-c2cccc(F)c2)sc1C(=O)N[C@H]1CCCNC1 [AZD7762] (partner 0.2 µM)
Procedure, shortened: as §1

Cell Line | relative viability ([1]; first compound 0.00128 µM) | relative viability ([1]; first compound 0.004048 µM) | relative viability ([1]; first compound 0.0128 µM) | relative viability ([1]; first compound 0.04048 µM) | relative viability ([1]; first compound 0.128 µM) | relative viability ([2]; first compound 0.00128 µM) | relative viability ([2]; first compound 0.004048 µM) | relative viability ([2]; first compound 0.0128 µM) | relative viability ([2]; first compound 0.04048 µM) | relative viability ([2]; first compound 0.128 µM) | relative viability ([3]; first compound 0.00128 µM) | relative viability ([3]; first compound 0.004048 µM) | relative viability ([3]; first compound 0.0128 µM) | relative viability ([3]; first compound 0.04048 µM) | relative viability ([3]; first compound 0.128 µM) | relative viability ([4]; first compound 0.00128 µM) | relative viability ([4]; first compound 0.004048 µM) | relative viability ([4]; first compound 0.0128 µM) | relative viability ([4]; first compound 0.04048 µM) | relative viability ([4]; first compound 0.128 µM)
NCI-H322M | 0.663 | 0.274 | 0.285 | 0.274 | 0.289 | 0.971 | 1.04 | 0.577 | 0.306 | 0.323 | 0.478 | 0.443 | 0.337 | 0.316 | 0.325 | 0.633 | 0.415 | 0.405 | 0.382 | 0.413
NCI-H358 | 0.273 | 0.235 | 0.121 | 0.0893 | 0.0737 | 0.669 | 0.397 | 0.0697 | 0.0813 | 0.0542 | 0.115 | 0.0905 | 0.0894 | 0.0684 | 0.0644 | 0.522 | 0.381 | 0.132 | 0.142 | 0.139
NCI-H441 | 0.278 | 0.197 | 0.196 | 0.181 | 0.17 | 0.903 | 0.862 | 0.39 | 0.211 | 0.0805 | 0.723 | 0.609 | 0.321 | 0.235 | 0.15 | 1.07 | 1.02 | 0.669 | 0.118 | 0.108
NCI-H460 | 0.0254 | 0.0275 | 0.0254 | 0.0299 | 0.023 | 0.983 | 0.907 | 0.063 | 0.0391 | 0.0257 | 0.478 | 0.521 | 0.0911 | 0.0297 | 0.0214 | 0.549 | 0.676 | 0.0907 | 0.0489 | 0.0524
NCI-H596 | 1.08 | 0.865 | 0.996 | 0.548 | 0.414 | 0.923 | 0.749 | 0.923 | 0.698 | 0.397 | 0.959 | 0.832 | 1.01 | 0.443 | 0.258 | 1.12 | 1.05 | 1.18 | 1.04 | 0.397
NCI-H647 | 0.128 | 0.122 | 0.098 | 0.109 | 0.0989 | 1.1 | 1.16 | 0.863 | 0.117 | 0.0874 | 0.419 | 0.222 | 0.0879 | 0.0995 | 0.0751 | 0.487 | 0.175 | 0.0631 | 0.074 | 0.0589
NCI-H650 | 0.884 | 0.601 | 0.607 | 0.386 | 0.171 | 1.04 | 1.02 | 1 | 0.934 | 0.249 | 0.698 | 0.675 | 0.702 | 0.584 | 0.153 | 0.882 | 1.11 | 0.63 | 0.324 | 0.263
NCI-H727 | 0.607 | 0.245 | 0.331 | 0.316 | 0.284 | 0.834 | 0.978 | 0.636 | 0.41 | 0.356 | 0.569 | 0.682 | 0.53 | 0.453 | 0.25 | 0.6 | 0.491 | 0.56 | 0.298 | 0.305
